Assays:
Settings in all cases: 72 h
Caco-2 [1] = experiment: cell viability relative to DMSO; higher = less toxic
Calu-3 [2] = experiment: as above
HepG2 [3] = experiment: as above
U2OS [4] = experiment: as above
Vero E6 [5] = experiment: as above
Caco-2 [6] = experiment: relative viability EC50 (midpoint between 100% and the lowest measured viability); higher = less toxic
Calu-3 [7] = experiment: as above
HepG2 [8] = experiment: as above
U2OS [9] = experiment: as above
Vero E6 [10] = experiment: as above
Caco-2 [11] = experiment: drug sensitivity score (DSS) for viability; higher = more toxic; extreme values may be limits of the assay
Calu-3 [12] = experiment: as above
HepG2 [13] = experiment: as above
U2OS [14] = experiment: as above
Vero E6 [15] = experiment: as above

SMILES | cell viability (Caco-2 [1]; 1 nM) [%] | cell viability (Caco-2 [1]; 10 nM) [%] | cell viability (Caco-2 [1]; 100 nM) [%] | cell viability (Caco-2 [1]; 1000 nM) [%] | cell viability (Caco-2 [1]; 10000 nM) [%] | cell viability (Calu-3 [2]; 1 nM) [%] | cell viability (Calu-3 [2]; 10 nM) [%] | cell viability (Calu-3 [2]; 100 nM) [%] | cell viability (Calu-3 [2]; 1000 nM) [%] | cell viability (Calu-3 [2]; 10000 nM) [%] | cell viability (HepG2 [3]; 1 nM) [%] | cell viability (HepG2 [3]; 10 nM) [%] | cell viability (HepG2 [3]; 100 nM) [%] | cell viability (HepG2 [3]; 1000 nM) [%] | cell viability (HepG2 [3]; 10000 nM) [%] | cell viability (U2OS [4]; 1 nM) [%] | cell viability (U2OS [4]; 10 nM) [%] | cell viability (U2OS [4]; 100 nM) [%] | cell viability (U2OS [4]; 1000 nM) [%] | cell viability (U2OS [4]; 10000 nM) [%] | cell viability (Vero E6 [5]; 1 nM) [%] | cell viability (Vero E6 [5]; 10 nM) [%] | cell viability (Vero E6 [5]; 100 nM) [%] | cell viability (Vero E6 [5]; 1000 nM) [%] | cell viability (Vero E6 [5]; 10000 nM) [%] | relative viability EC50 (Caco-2 [6]) [µM] | relative viability EC50 (Calu-3 [7]) [µM] | relative viability EC50 (HepG2 [8]) [µM] | relative viability EC50 (U2OS [9]) [µM] | relative viability EC50 (Vero E6 [10]) [µM] | drug sensitivity score (Caco-2 [11]) | drug sensitivity score (Calu-3 [12]) | drug sensitivity score (HepG2 [13]) | drug sensitivity score (U2OS [14]) | drug sensitivity score (Vero E6 [15])
Nc1nc(F)nc2c1ncn2[C@@H]1O[C@H](CO)[C@@H](O)[C@@H]1O [fludarabine] | 94.1 | 104 | 102 | 99.9 | 102 | 111 | 88.9 | 95.2 | 87.6 | 87.5 | 103 | 95.6 | 95.2 | 95.6 | 79.4 | 98.8 | 102 | 98.6 | 102 | 103 | 93.9 | 95.2 | 92.8 | 99.4 | 101 | > 10 | > 10 | > 10 | > 10 | > 10 | 0 | 0.7 | 1.1 | 0 | 0
C#CCN(C)Cc1ccccc1 [pargyline] | 96 | 93 | 96.3 | 98.6 | 103 | 93.5 | 97.4 | 95.4 | 89.3 | 102 | 98.7 | 96.2 | 109 | 89.7 | 102 | 99.2 | 101 | 99.9 | 102 | 103 | 96.4 | 96.3 | 92.7 | 93.1 | 107 | > 10 | > 10 | > 10 | > 10 | > 10 | 0 | 0 | 0 | 0 | 0
NC1=N[C@@]2(c3cc(NC(=O)c4ccc(F)cn4)ccc3F)COC[C@H]2CS1 | 94.8 | 93.7 | 101 | 86 | 103 | 103 | 96.5 | 93.4 | 93.1 | 98.5 | 99.9 | 110 | 93.4 | 112 | 105 | 98.6 | 94.6 | 101 | 98.4 | 100 | 95.5 | 97.2 | 94.3 | 99.4 | 102 | > 10 | > 10 | > 10 | > 10 | > 10 | 0 | 0 | 0 | 0 | 0
CN(C)CCn1cc(S(=O)(=O)c2cccc(F)c2)c2cccnc21 | 98.2 | 102 | 106 | 98.8 | 103 | 116 | 94.7 | 90.4 | 97.5 | 95.3 | 106 | 110 | 91.8 | 103 | 97.5 | 103 | 98.3 | 99.9 | 98.2 | 103 | 98.6 | 102 | 101 | 105 | 97.7 | > 10 | > 10 | > 10 | > 10 | > 10 | 0 | 0 | 0 | 0 | 0
CS(=O)(=O)N(Cc1ccco1)C[C@@H](O)Cn1c2ccccc2c2ccccc21 [KL-001] | 95.6 | 98.5 | 102 | 94.1 | 94.6 | 105 | 93.2 | 101 | 115 | 110 | 98.9 | 104 | 97.2 | 104 | 106 | 98.3 | 98.4 | 99 | 93.7 | 90 | 99 | 101 | 97.6 | 100 | 98 | > 10 | > 10 | > 10 | > 10 | > 10 | 0 | 0 | 0 | 0 | 0
Fc1ccc(-c2c3cccc(C(F)(F)F)c3nn2Cc2ccc(F)cc2Cl)cc1 [LXR-623] | 102 | 92 | 94.5 | 96.5 | 83.2 | 101 | 97.3 | 97 | 93.7 | 91.2 | 95.5 | 94.4 | 87.9 | 90.2 | 77.2 | 102 | 98.2 | 102 | 97.1 | 97.4 | 105 | 105 | 102 | 98 | 98.6 | > 10 | > 10 | > 10 | > 10 | > 10 | 0.2 | 0 | 1.9 | 0 | 0
NCC(=O)O [AZD4282] | 99 | 104 | 86.4 | 99.7 | 103 | 86.3 | 101 | 96.3 | 102 | 97.3 | 95.3 | 96 | 96.6 | 102 | 101 | 93.7 | 96.7 | 100 | 98.9 | 102 | 102 | 103 | 99.3 | 104 | 100 | > 10 | > 10 | > 10 | > 10 | > 10 | 0 | 0 | 0 | 0 | 0
CCOc1nc2cccc(C(=O)O)c2n1Cc1ccc(-c2ccccc2-c2noc(=O)[nH]2)cc1 [azilsartan] | 103 | 91.4 | 91.9 | 103 | 95.7 | 94.2 | 98.2 | 96 | 93 | 91.5 | 93.5 | 103 | 102 | 108 | 102 | 102 | 93.6 | 99.5 | 93.3 | 97.5 | 99 | 102 | 98.1 | 103 | 94.3 | > 10 | > 10 | > 10 | > 10 | > 10 | 0 | 0 | 0 | 0 | 0
COP(=O)(OC)OC(c1ccc(Cl)cc1)P(=O)(OC)OC (stereo not given) [mifobate] | 106 | 94.5 | 98 | 107 | 105 | 93.6 | 94.1 | 85.1 | 96.7 | 96.3 | 107 | 98.5 | 92.8 | 99.8 | 93.7 | 101 | 97.5 | 101 | 94.4 | 98.3 | 101 | 94.5 | 98 | 92.5 | 100 | > 10 | > 10 | > 10 | > 10 | > 10 | 0 | 0 | 0 | 0 | 0
CC(C)Cn1cnc2c1c(=O)n(C)c(=O)n2C [isbufylline] | 93.7 | 96.8 | 112 | 115 | 112 | 104 | 88.5 | 101 | 102 | 98.4 | 100 | 99 | 91.7 | 93.7 | 105 | 98.1 | 96.5 | 98.1 | 97.3 | 93.3 | 92.9 | 95.9 | 91.3 | 104 | 106 | > 10 | > 10 | > 10 | > 10 | > 10 | 0 | 0 | 0 | 0 | 0
CC(C)[C@](O)(c1ccc2cc(OC(F)F)c(OC(F)F)cc2c1)c1c[nH]nn1 [VT-464] | 93.3 | 103 | 105 | 95.1 | 88.3 | 104 | 101 | 93.2 | 93 | 96.5 | 101 | 104 | 98.1 | 109 | 90.8 | 96.3 | 101 | 99.2 | 102 | 93 | 98.8 | 103 | 99.3 | 98.2 | 94.5 | > 10 | > 10 | > 10 | > 10 | > 10 | 0.2 | 0 | 0 | 0 | 0
O=C(O)C(=O)c1cn(Cc2ccccc2)c2ccc(-c3ccc(OC(F)(F)F)cc3)cc12 [tiplaxtinin] | 104 | 106 | 102 | 92.2 | 92.8 | 113 | 95.5 | 96.8 | 98.6 | 104 | 104 | 98.8 | 102 | 93.8 | 93.1 | 94.5 | 92.1 | 104 | 94.7 | 96.5 | 108 | 106 | 96.6 | 98.2 | 81.3 | > 10 | > 10 | > 10 | > 10 | > 10 | 0 | 0 | 0 | 0 | 0.7
CCC(=O)OCC(=O)[C@@]1(OC(=O)CC)[C@H](C)C[C@H]2[C@H]3[C@H]([C@@H](O)C[C@@]21C)[C@@]1(C)C=CC(=O)C=C1C[C@H]3Cl [alclometasone-dipropionate] | 97.3 | 101 | 99.7 | 94.7 | 96.8 | 96 | 88.1 | 90.2 | 95.6 | 97.6 | 103 | 101 | 112 | 90.4 | 91.1 | 97.2 | 97 | 91.7 | 96.6 | 90.8 | 108 | 101 | 104 | 98 | 106 | > 10 | > 10 | > 10 | > 10 | > 10 | 0 | 0 | 0 | 0 | 0
O=C(O)CCc1cc(C(=O)c2ccc(OC3CCCC3)cc2O)ccc1OCc1ccc2c(O)noc2c1 [T-5224] | 106 | 99.2 | 101 | 93.6 | 94 | 97.3 | 106 | 92.3 | 93.9 | 100 | 97.9 | 93 | 105 | 102 | 96.4 | 97.6 | 99.2 | 95.9 | 99.9 | 96.4 | 93.9 | 101 | 97.2 | 102 | 94.9 | > 10 | > 10 | > 10 | > 10 | > 10 | 0 | 0 | 0 | 0 | 0

— the supplement of paper PMC13380429
